# Experimental data: patent publication US6528516B1, “Methods for reducing intraocular pressure using A3 adenosine receptor antagonists” (Trustees of the University of Pennsylvania, The Center for …, priority 1998, dated 2003)
# Columns and labels:
# rabbit iris-ciliary body = assay: Short-circuit current across intact rabbit ciliary epithelium (iris-ciliary body), 5 mM Ba2+; settings: 30 μM, solvent-corrected
# From the text: Adult male Dutch belted rabbits weighing 1.8-2.4 kg (Ace Animals, Boyertown, Pa.) were anesthetized with pentobarbital and sacrificed (Carre et al., J. Membr. Biol. 146:293-305, 1995). After enucleation, the iris-ciliary body (I-CB) was isolated as previously described (Carre et al., 1995, supra.). The experiments were in accordance with the Resolution on the Use of Animals in Research of the Association for Research in Vision and Ophthalmology.
# The pupil and central iris were occluded with a Lucite disc, and the iris-ciliary body was mounted between the two halves of a Lucite chamber (1). The annulus of exposed tissue provided a projected surface area of 0.93 cm^2. Preparations were continuously bubbled with 95%O2-5%CO2 for maintenance of pH 7.4 in a Ringer's solution comprising (in mM): 110.0 NaCl, 10.0HEPES (acid), 5.0HEPES (Na^+), 30.0 NaHCO3, 2.5 CaCl2, 1.2 MgCl2, 5.9 KCl, and 10.0 glucose, at an osmolality of 305 mOsm. BaCl2 (5 mM) was added to the solution to block K^+ currents. The transepithelial potential was fixed at 0 mV, corrected for solution series resistance, and the short-circuit current was monitored on a chart recorder. Data were digitally acquired at 10 Hz via a DigiData 1200A converter and AxoScope 1.1 software (Axon Instruments, Foster City, Calif.). Automatic averaging was performed with a reduction factor of 100 to achieve a final sampling rate of 6/min. […]
# HCE cells = assay: Free intracellular Ca2+ in HCE cells (fura-2); assay type: cell-based, human
# Method: In other cells, stimulation of the A3-receptor can lead to an elevation of intracellular Ca^2+(Kohno et al., supra.), so intracellular Ca^2+was monitored in HCE cells to provide an additional physiologic assay for the presence of A3 receptors. HCE cells grown on coverslips for 24-48 hrs were loaded with 1-5 μM fura-2 AM for 30-45 min at room temperature. The cells were subject to a post-incubation interval of 20-40 minutes at room temperature before recording began. The coverslips were mounted on a Nikon Diaphot microscope and visualized with a ×40 oil-immersion fluorescence objective. The emitted fluorescence (510 nm) from 10-12 confluent cells was acquired at a sampling frequency of 1 Hz following excitation at 340 nm and 380 nm, and the ratio was determined with a Delta-Ram system and Felix software (Photon Technology International Inc., Princeton, N.J.).Cells were perfused with an isotonic solution consisting of (in mM) 105 NaCl, 6HEPES (acid), 4HEPES (Na^+), 2 CaCl2, 1 MgCl2, 4 KCl, 5 glucose and 90 mannitol, at an osmolality of 327 mOsm, pH 7.4. […]
# where Rmin and Rmax are the ratio of fluorescence at […] in the absence of Ca^2+, and in the presence of saturating Ca^2+, respectively. R is the ratio measured experimentally. The S2f and S2b are the fluorescence emitted at 380 nM in the Ca^2+ free and Ca^2+ bound states respectively. […]
smiles,measurement,setting,value
"CNC(=O)[C@H]1O[C@@H](n2cnc3c(NCc4cccc(I)c4)ncnc32)[C@H](O)[C@@H]1O [IB-MECA, N^6-(3-iodobenzyl)-adenosine-5′-N-methyluronamide]",effect on short-circuit current,rabbit iris-ciliary body,significant increase in the short-circuit current
same,mean rise of intracellular Ca2+,HCE cells; 100 nM IB-MECA,17 ± 5 nM
same,mean rise of intracellular Ca2+,HCE cells; 1 μM IB-MECA,22 ± 6 nM
